Columns and labels:
Assay type in all cases: biochemical
[1] = target: T1, Recombinant human MMP12 catalytic domain (Homo sapiens, UniProt P39900); assay: MMP12 isolated enzyme assay (fluorogenic substrate); details: 60 min, room temperature, read-out: hMMP12 IC50
T1 construct: Recombinant human MMP12 catalytic domain; made in house
Method: Recombinant human MMP12 catalytic domain may be expressed and purified as described by Parkar A. A. et al, (2000), Protein Expression and Purification, 20, 152. The purified enzyme can be used to monitor inhibitors of activity as follows: MMP12 (50 ng/ml final concentration) is incubated for 60 minutes at room temperature with the synthetic substrate Mca-Pro-Cha-Gly-Nva-His-Ala-Dpa-NH2 (10 μM) in assay buffer (0.1M “Tris-HCl” (trade mark) buffer, pH 7.3 containing 0.1M NaCl, 20 mM CaCl2, 0.020 mM ZnCl and 0.05% (w/v) “Brij 35” (trade mark) detergent) in the presence (10 concentrations) or absence of inhibitors. Activity is determined by measuring the fluorescence at λex 320 nm and λem 405 nm. Percent inhibition is calculated as follows: % Inhibition is equal to the [Fluorescenceplus inhibitor−Fluorescencebackground] divided by the [Fluorescenceminus inhibitor−Fluorescencebackground]. MMP8

[2] = target: T2, Recombinant human MMP9 catalytic domain (Homo sapiens, UniProt P14780); assay: MMP9 isolated enzyme assay (fluorogenic substrate); details: 30 min, RT, read-out: hMMP9 IC50
T2 sequence (P14780 with tags, fused parts or gaps DEL216-390 limits assumed): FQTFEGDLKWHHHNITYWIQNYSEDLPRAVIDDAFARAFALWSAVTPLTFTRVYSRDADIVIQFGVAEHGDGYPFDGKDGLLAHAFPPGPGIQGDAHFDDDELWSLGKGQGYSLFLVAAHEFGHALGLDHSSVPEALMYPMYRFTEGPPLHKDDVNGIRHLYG
Method: Recombinant human MMP9 catalytic domain was expressed and then purified by Zn chelate column chromatography followed by hydroxamate affinity column chromatography. The enzyme can be used to monitor inhibitors of activity as follows: MMP9 (5 ng/ml final concentration) is incubated for 30 minutes at RT with the synthetic substrate Mca-Pro-Cha-Gly-Nva-His-Ala-Dpa-NH2 (5 μM) in assay buffer (0.1M “Tris-HCl” (trade mark) buffer, pH 7.3 containing 0.1M NaCl, 20 mM CaCl2, 0.020 mM ZnCl and 0.05% (w/v) “Brij 35” (trade mark) detergent) in the presence (10 concentrations) or absence of inhibitors. Activity is determined by measuring the fluorescence at […]. Percent inhibition is calculated as follows: % Inhibition is equal to the [Fluorescenceplus inhibitor−Fluorescencebackground] divided by the [Fluorescenceminus inhibitor−Fluorescencebackground]. MMP14

[3] = target: T3, hMMP8 (APMA-activated pro-MMP8) (Homo sapiens, UniProt P22894); assay: MMP8 isolated enzyme assay (fluorogenic substrate); details: 90 min, 35° C.
T3 construct: purchased Calbiochem
Method: Purified pro-MMP8 is purchased from Calbiochem. The enzyme (at 10 μg/ml) is activated by p-amino-phenyl-mercuric acetate (APMA) at 1 mM for 2.5 h, 35° C. The activated enzyme can be used to monitor inhibitors of activity as follows: MMP8 (200 ng/ml final concentration) is incubated for 90 minutes at 35° C. (80% H2O) with the synthetic substrate Mca-Pro-Cha-Gly-Nva-His-Ala-Dpa-NH2 (12.5 μM) in assay buffer (0.1 M “Tris-HCl” (trade mark) buffer, pH 7.5 containing 0.1M NaCl, 30 mM CaCl2, 0.040 mM ZnCl and 0.05% (w/v) “Brij 35” (trade mark) detergent) in the presence (10 concentrations) or absence of inhibitors. Activity is determined by measuring the fluorescence at λex 320 nm and λem 405 nm. Percent inhibition is calculated as follows: % Inhibition is equal to the [Fluorescenceplus inhibitor−Fluorescencebackground] divided by the [Fluorescenceminus inhibitor−Fluorescencebackground]. MMP9

[4] = target: T4, Recombinant human MMP14 catalytic domain (Homo sapiens, UniProt P50281); assay: MMP14 isolated enzyme assay (fluorogenic substrate); details: 60 min, room temperature, read-out: hMMP14 IC50
T4 construct: Recombinant human MMP14 catalytic domain; made in house
Method: Recombinant human MMP14 catalytic domain may be expressed and purified as described by Parkar A. A. et al, (2000), Protein Expression and Purification, 20, 152. The purified enzyme can be used to monitor inhibitors of activity as follows: MMP14 (10 ng/ml final concentration) is incubated for 60 minutes at room temperature with the synthetic substrate Mca-Pro-Cha-Gly-Nva-His-Ala-Dpa-NH2 (10 μM) in assay buffer (0.1M “Tris-HCl” (trade mark) buffer, pH 7.5 containing 0.1M NaCl, 20 mM CaCl2, 0.020 mM ZnCl and 0.05% (w/v) “Brij 35” (trade mark) detergent) in the presence (5 concentrations) or absence of inhibitors. Activity is determined by measuring the fluorescence at λex 320 nm and λem 405 nm. Percent inhibition is calculated as follows: % Inhibition is equal to the [Fluorescenceplus inhibitor−Fluorescencebackground] divided by the [Fluorescenceminus inhibitor−Fluorescencebackground].

[5] = target: T5, Recombinant human MMP19 catalytic domain (Homo sapiens, UniProt Q99542); assay: MMP19 isolated enzyme assay (fluorogenic substrate); details: 120 min, 35° C., read-out: hMMP19 IC50
T5 construct: Recombinant human MMP19 catalytic domain; made in house
Method: Recombinant human MMP19 catalytic domain may be expressed and purified as described by Parkar A. A. et al, (2000), Protein Expression and Purification, 20:152. The purified enzyme can be used to monitor inhibitors of activity as follows: MMP19 (40 ng/ml final concentration) is incubated for 120 minutes at 35° C. with the synthetic substrate Mca-Pro-Leu-Ala-Nva-Dpa-Ala-Arg-NH2 (5 μM) in assay buffer (0.1M “Tris-HCl” (trade mark) buffer, pH 7.3 containing 0.1M NaCl, 20 mM CaCl2, […] ZnCl and 0.05% (w/v) “Brij 35” (trade mark) detergent) in the presence (5 concentrations) or absence of inhibitors. Activity is determined by measuring the fluorescence at λex 320 nm and λem 405 nm. Percent inhibition is calculated as follows: % Inhibition is equal to the [Fluorescenceplus inhibitor−Fluorescencebackground] divided by the [Fluorescenceminus inhibitor−Fluorescencebackground].

T1 sequence (P39900 106-263 limits assumed): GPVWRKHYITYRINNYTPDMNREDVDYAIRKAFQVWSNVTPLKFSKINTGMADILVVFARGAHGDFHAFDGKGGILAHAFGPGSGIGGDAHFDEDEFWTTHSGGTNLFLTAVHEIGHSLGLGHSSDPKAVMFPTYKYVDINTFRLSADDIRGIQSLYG
T3 sequence (P22894 101-467): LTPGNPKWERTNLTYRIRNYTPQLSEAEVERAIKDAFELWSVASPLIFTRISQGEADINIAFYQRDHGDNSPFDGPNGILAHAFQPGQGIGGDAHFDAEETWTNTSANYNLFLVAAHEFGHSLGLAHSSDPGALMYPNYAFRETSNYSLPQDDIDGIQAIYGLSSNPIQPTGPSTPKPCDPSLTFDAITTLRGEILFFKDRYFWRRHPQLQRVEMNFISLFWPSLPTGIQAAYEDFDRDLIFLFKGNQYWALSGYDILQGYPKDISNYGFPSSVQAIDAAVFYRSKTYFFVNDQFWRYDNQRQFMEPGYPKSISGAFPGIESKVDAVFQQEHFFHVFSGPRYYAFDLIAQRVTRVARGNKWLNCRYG
T5 sequence (Q99542 98-256 limits assumed): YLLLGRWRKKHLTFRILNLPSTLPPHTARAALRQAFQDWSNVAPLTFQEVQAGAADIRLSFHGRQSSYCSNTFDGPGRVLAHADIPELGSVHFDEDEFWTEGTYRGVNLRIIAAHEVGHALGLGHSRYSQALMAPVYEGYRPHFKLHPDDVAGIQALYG

IC50 [1] | IC50 [2] | IC50 [3] | IC50 [4] | IC50 [5] | Compound
8.78 nM | 10.1 nM | 3050 nM | > 10000 nM | > 10000 nM | C[C@]1(CS(=O)(=O)N2CCc3cc(-c4cnc(C5CC5)nc4)ccc3C2)NC(=O)NC1=O [Example 1, (5S)-5-({[6-(2-Cyclopropylpyrimidin-5-yl)-3,4-dihydroisoquinolin-2(1H)-yl]sulfonyl}methyl)-5-methylimidazolidine-2,4-dione]
26.6 nM | 21.5 nM | 2470 nM | > 10000 nM | – | C[C@]1(CS(=O)(=O)N2CCc3cc(-c4ccc(C5CC5)nc4)ncc3C2)NC(=O)NC1=O [Example 2, (5S)-5-({[6-(6-Cyclopropylpyridin-3-yl)-3,4-dihydro-2,7-naphthyridin-2(1H)-yl]sulfonyl}methyl)-5-methylimidazolidine-2,4-dione]
6.9 nM | 3.8 nM | 1310 nM | 8810 nM | 3760 nM | CC[C@]1(CS(=O)(=O)N2CCc3cc(-c4cnc(C5CC5)nc4)ccc3C2)NC(=O)NC1=O [Example 5, (5S)-5-({[6-(2-Cyclopropylpyrimidin-5-yl)-3,4-dihydroisoquinolin-2(1H)-yl]sulfonyl}methyl)-5-ethylimidazolidine-2,4-dione]

— patent US7655664B2, “Hydantoin derivatives as metalloproteinase inhibitors” (AstraZeneca AB, priority 2004, dated 2010)
